From ChEMBL document CHEMBL1201862, “PubChem BioAssay data set” (2004)
Calls of active or inactive are those of the source.

Key:
[1] = biological target: Luciferin 4-monooxygenase (Photinus pyralis, UniProt P08659); test: inhibition of purified Photinus pyralis luciferase – biochemical, dry powder samples, plate reader, dose response (AID 588451)
[2] = Luminescence-based counterscreen assay for KLF5 inhibitors: dose response cell-based high throughput screening assay to identify cytotoxic compounds using the IEC-6 intestinal epithelial cell line. [Related pubchem assays: 1700 (Primary screen.), 1834 (Confirmation screen.), 1858 (Summary AID.), 1905 (Counterscreen.)]; assay type: functional
[3] = system: H4; test: Inhibitors of Prion Protein 5' UTR mRNA Measured in Cell-Based System Using Plate Reader - 2078-01_Inhibitor_Dose_DryPowder_Activity. [Related pubchem assays (depositor defined):AID488894]; assay type: functional; conditions: Homo sapiens
[4] = blockers of HIV-1 ZM109 envelope-driven cell-cell fusion – HeLa effector, CEM target cells, luciferase, cherry-pick, dose response (AID 652058); assay type: functional, cell-based;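 further: luciferase signal from HIV-1 Env mediated cell-cell fusion of effector and target cells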
[5] = system: Jurkat; test: blockers of NF-kB activation in T cells – Jurkat, luciferase reporter, luminescence, B- and T-cell, dose response (AID 489004); assay type: functional, cell-based; conditions: Homo sapiens;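 further: NF-kB luciferase reporter Jurkat cells stimulated with PMA plus ionomycin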
[6] = blockers of bursicon-stimulated LGR2 cAMP reporter – cell-based, HEK293, CRE-luciferase reporter, cherry pick, set 2, dose response (AID 743343); assay type: functional;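 further: transfected cells were stimulated with diluted bursicon conditioned medium after compound addition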
[7] = blockade of melanocortin 4 receptor signaling – cell-based, plate reader, cherry pick, counter-screen for LGR2 antagonist project, dose response (AID 743444); assay type: functional;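 further: transfected HEK 293 cells stimulated with alpha-MSH peptide; potency of inhibitors of the alpha-MSH evoked signal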
[8] = system: H4; test: inhibitors of control reporter signal in H4 cells – cell-based, plate reader, dry powder samples, counter-screen for prion reporter project, dose response (AID 540255); assay type: functional; conditions: Homo sapiens
[9] = HIV-1 AD8 envelope cell-cell fusion blockers – cherry-pick, dose response (AID 652062); assay type: functional, cell-based;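 further: luciferase signal from cell-cell fusion driven by HIV-1 clade B AD8 Env; potency is for inhibitors of fusion seen as a drop in luminescence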
[10] = blockers of HIV-1 envelope-mediated cell-cell fusion – cherry-pick, dose response (AID 652057); assay type: functional, cell-based
[11] = HEK-293T viability loss, compound-treated – cell-based, uHTS hits, cytotoxicity control for B/T-cell NF-kB inhibitor project, dose response (AID 489019); assay type: functional;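 further: IC50 reflects cytotoxicity as loss of cell viability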
[12] = off-target signal loss in HeLa-CEM21 co-culture – HeLa F-luc CTL cells, cherry-picked, counter-screen for HIV-1 Env fusion inhibitor project, dose response (AID 652040); assay type: functional, cell-based;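 further: potency for signal decrease marking cytotoxic or nonspecific inhibition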
[13] = system: H4; test: Amyloid Precursor 5' UTR neuroblastoma cell reporter line Measured in Cell-Based System Using Plate Reader - 2078-04_Inhibitor_Dose_DryPowder_Activity. [Related pubchem assays (depositor defined):AID488894]; assay type: functional; conditions: Homo sapiens
[14] = biological target: Paired box protein Pax-8 (Homo sapiens, UniProt Q06710); test: PAX8 transcriptional activity inhibition in RMG-I – RMG-I cells, luciferase, cherry-pick, dose response (AID 687027); assay type: functional, cell-based;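 further: luciferase reporter driven by Pax8 target thyroperoxidase promoter measured by SteadyGlo luminescence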
Paired box protein Pax-8, sequence (Q06710 whole entry, canonical isoform): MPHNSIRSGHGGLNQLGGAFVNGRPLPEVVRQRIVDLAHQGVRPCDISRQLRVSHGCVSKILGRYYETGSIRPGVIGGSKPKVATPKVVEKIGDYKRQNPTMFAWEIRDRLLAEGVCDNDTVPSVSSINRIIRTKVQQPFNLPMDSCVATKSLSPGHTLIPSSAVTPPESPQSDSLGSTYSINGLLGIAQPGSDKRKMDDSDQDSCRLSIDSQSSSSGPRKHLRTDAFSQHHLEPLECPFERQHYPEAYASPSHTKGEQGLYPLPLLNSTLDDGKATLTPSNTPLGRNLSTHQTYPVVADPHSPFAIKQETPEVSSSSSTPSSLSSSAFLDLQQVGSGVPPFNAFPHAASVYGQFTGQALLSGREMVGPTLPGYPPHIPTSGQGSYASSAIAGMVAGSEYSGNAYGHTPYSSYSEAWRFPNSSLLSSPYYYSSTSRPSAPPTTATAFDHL

[15] = biological target: Phosphorylase b kinase gamma catalytic chain, liver/testis isoform (Homo sapiens, UniProt P15735); assay type: functional;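 further: PHKG2 measured as one member of a kinome-wide kinase panel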
Phosphorylase b kinase gamma catalytic chain, liver/testis isoform, sequence (P15735 whole entry, canonical isoform): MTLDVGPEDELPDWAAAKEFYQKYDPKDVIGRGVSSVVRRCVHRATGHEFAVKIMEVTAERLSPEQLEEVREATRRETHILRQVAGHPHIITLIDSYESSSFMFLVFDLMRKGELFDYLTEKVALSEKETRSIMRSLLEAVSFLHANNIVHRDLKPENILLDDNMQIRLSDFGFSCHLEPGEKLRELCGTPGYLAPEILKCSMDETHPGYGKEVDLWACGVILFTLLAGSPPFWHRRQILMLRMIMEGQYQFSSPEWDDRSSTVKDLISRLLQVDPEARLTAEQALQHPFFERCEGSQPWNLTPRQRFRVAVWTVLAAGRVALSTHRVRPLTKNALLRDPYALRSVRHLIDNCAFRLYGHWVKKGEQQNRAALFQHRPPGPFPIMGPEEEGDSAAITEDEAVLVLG

[16] = cAMP pathway inhibition in counterscreen cell line – TR-FRET cAMP detection, counter-screen for MC4R biased antagonist project, dose response (AID 602305); assay type: functional, cell-based;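 further: U2OS cells stimulated with forskolin near its EC80 as the cAMP inducer; potency is for inhibition of forskolin-stimulated cAMP signaling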
[17] = biological target: Melanocortin receptor 4 (Homo sapiens, UniProt P32245); test: inhibitors of MC4R cAMP signaling – cell-based, TR-FRET, biased antagonists, dose response (AID 602298); assay type: functional;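 further: antagonist potency against agonist-stimulated cAMP production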
Melanocortin receptor 4, sequence (P32245 whole entry): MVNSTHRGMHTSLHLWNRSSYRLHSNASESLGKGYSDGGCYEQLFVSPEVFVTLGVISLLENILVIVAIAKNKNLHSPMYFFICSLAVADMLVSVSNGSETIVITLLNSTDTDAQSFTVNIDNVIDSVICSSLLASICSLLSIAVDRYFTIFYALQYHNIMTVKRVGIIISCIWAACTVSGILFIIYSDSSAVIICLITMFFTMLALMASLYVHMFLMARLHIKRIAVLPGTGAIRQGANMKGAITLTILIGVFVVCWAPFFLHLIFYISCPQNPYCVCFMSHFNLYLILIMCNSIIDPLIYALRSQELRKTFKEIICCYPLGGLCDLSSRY

[18] = biological target: Glycogen synthase kinase-3 beta (Homo sapiens, UniProt P49841); test: Inhibition of Human GSK-3 beta Activity Measured in Biochemical System Using Microfluidics - 2063-05_Inhibitor_Dose_DryPowder_Activity_Set2. [Related pubchem assays (depositor defined):AID2709]
Glycogen synthase kinase-3 beta, sequence (P49841 whole entry): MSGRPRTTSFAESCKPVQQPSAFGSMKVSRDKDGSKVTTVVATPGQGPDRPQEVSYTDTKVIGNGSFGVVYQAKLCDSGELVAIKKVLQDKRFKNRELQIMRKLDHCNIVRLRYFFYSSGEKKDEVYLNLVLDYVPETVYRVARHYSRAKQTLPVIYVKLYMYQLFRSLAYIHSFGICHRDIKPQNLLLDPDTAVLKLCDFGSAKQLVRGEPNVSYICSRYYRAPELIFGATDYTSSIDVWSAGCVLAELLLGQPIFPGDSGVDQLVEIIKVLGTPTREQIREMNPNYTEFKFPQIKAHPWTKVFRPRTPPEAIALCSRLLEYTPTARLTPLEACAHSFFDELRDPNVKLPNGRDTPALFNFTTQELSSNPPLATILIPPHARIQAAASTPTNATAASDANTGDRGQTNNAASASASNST

[19] = biological target: Glycogen synthase kinase-3 alpha (Homo sapiens, UniProt P49840); test: Inhibition of Human GSK-3 alpha Activity Measured in Biochemical System Using Microfluidics - 2063-06_Inhibitor_Dose_DryPowder_Activity_Set2. [Related pubchem assays (depositor defined):AID2709]
Glycogen synthase kinase-3 alpha, sequence (P49840 whole entry): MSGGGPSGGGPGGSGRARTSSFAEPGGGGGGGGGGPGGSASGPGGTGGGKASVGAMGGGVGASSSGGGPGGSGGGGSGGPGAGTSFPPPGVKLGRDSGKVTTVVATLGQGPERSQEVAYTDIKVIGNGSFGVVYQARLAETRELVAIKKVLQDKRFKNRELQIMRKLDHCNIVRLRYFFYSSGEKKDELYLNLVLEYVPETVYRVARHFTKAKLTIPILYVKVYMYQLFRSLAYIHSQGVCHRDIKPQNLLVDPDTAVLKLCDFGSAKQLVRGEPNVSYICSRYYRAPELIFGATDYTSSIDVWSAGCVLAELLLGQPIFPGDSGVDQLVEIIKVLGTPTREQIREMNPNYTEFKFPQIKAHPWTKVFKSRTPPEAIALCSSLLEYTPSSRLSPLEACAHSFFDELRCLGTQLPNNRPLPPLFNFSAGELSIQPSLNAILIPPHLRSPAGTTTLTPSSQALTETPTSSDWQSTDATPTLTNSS

[20] = viability of HCT116 lacking mutant beta-catenin – cell-based, human colon tumor, dose response (AID 1045); assay type: functional;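 further: HCT116 colon tumor cells with beta catenin knocked out; cells exposed to compound for 60 hours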
[21] = viability of PTEN-deleted HCT116 cells – cell-based, HCT116 PTEN knockout, dose response (AID 1047); assay type: functional;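 further: HCT116 colon tumor cells with PTEN knocked out; cells exposed to compound for 60 hours before readout; potency for loss of cell viability measured by luminescence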
[22] = biological target: Dual specificity tyrosine-phosphorylation-regulated kinase 1A (Rattus norvegicus, UniProt Q63470); assay type: biochemical, Homo sapiens
[23] = biological target: Dual specificity protein kinase CLK1 (Homo sapiens, UniProt P49759); test: inhibition of human CLK1 activity – biochemical, cherry-picked samples, selectivity assay for Dyrk1A inhibitor project, dose response (AID 588811)
Dual specificity protein kinase CLK1, sequence (P49759 whole entry): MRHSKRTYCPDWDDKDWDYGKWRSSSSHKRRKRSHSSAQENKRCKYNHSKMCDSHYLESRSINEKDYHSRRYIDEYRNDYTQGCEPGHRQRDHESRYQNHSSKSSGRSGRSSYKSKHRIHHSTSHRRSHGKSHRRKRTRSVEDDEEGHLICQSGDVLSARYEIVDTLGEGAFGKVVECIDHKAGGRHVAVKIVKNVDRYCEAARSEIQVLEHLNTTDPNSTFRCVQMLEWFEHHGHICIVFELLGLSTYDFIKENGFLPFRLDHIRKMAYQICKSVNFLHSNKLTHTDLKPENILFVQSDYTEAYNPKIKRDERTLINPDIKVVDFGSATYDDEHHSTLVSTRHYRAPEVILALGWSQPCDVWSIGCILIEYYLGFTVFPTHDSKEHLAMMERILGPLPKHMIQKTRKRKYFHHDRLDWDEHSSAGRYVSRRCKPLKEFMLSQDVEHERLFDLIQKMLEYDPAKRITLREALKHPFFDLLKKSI

[24] = system: INS1; test: beta-cell survival under cytokine stress – INS-1E, ATP luminescence, dry powder, dose response (AID 488844); assay type: functional, cell-based; conditions: Rattus norvegicus
[25] = system: INS1; test: suppression of NO production in INS-1E cells – cell-based, Griess absorbance, dry powder, set 2, dose response (AID 488868); assay type: functional; conditions: Rattus norvegicus
[26] = biological target: T1, Hexokinase-1 (Homo sapiens, UniProt P19367); test: SAR analysis of small molecule inhibitors of hexokinase domain containing I (HKDC1) in the hexokinase 1 selectivity assay. [Related pubchem assays (depositor defined):AID493160, AID493190]; assay type: functional
T1 sequence (P19367 whole entry): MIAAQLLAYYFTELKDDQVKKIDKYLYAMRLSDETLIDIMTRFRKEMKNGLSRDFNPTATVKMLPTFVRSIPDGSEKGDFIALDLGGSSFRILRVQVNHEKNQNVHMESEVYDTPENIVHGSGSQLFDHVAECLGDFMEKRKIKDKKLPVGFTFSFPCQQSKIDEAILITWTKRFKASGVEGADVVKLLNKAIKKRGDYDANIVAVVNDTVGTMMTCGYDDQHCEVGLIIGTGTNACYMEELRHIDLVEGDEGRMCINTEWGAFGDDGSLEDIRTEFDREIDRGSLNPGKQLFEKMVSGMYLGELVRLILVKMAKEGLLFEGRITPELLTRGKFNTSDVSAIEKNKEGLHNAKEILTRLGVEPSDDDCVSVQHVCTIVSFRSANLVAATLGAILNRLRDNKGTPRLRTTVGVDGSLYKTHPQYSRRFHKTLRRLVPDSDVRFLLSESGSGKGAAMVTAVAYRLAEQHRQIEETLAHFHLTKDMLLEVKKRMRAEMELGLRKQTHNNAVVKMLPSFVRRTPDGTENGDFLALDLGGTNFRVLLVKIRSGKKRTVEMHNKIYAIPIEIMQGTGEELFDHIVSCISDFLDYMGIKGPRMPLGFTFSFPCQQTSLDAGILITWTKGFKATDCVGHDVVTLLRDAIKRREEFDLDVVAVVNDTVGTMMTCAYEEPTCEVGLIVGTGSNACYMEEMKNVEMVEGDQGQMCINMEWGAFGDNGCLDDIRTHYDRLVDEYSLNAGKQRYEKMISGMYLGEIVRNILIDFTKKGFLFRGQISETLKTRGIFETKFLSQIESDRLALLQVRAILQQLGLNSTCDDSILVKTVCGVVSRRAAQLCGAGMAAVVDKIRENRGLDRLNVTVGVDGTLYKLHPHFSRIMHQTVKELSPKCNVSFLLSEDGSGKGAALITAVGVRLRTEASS

[27] = biological target: T2, Hexokinase HKDC1 (Homo sapiens, UniProt Q2TB90); test: SAR analysis of small molecule inhibitors of hexokinase domain containing I (HKDC1). [Related pubchem assays (depositor defined):AID493160, AID493190]; assay type: functional
T2 sequence (Q2TB90 whole entry): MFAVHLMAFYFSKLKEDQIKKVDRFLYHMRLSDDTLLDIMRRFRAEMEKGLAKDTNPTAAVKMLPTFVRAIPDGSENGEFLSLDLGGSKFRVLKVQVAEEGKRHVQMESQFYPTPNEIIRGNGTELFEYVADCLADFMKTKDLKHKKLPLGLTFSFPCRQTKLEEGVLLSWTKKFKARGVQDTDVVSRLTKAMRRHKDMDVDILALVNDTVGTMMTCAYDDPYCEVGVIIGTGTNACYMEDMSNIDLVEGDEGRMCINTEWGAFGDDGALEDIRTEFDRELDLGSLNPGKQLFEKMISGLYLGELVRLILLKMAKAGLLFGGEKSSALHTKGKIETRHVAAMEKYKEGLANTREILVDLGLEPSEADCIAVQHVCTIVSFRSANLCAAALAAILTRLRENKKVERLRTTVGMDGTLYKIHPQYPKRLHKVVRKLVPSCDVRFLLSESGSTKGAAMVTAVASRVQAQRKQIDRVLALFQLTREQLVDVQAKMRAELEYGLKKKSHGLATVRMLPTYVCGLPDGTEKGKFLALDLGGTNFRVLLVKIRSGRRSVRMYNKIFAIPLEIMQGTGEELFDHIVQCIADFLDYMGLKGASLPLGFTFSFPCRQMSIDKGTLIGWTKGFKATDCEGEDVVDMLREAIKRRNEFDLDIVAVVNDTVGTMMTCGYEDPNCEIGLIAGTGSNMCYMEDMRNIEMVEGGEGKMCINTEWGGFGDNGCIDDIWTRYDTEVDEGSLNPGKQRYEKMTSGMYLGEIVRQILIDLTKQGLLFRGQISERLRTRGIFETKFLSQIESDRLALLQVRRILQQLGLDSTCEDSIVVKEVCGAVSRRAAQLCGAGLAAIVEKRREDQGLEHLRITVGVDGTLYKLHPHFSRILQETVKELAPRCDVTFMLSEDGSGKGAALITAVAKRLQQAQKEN

Luciferin 4-monooxygenase, sequence (P08659 whole entry): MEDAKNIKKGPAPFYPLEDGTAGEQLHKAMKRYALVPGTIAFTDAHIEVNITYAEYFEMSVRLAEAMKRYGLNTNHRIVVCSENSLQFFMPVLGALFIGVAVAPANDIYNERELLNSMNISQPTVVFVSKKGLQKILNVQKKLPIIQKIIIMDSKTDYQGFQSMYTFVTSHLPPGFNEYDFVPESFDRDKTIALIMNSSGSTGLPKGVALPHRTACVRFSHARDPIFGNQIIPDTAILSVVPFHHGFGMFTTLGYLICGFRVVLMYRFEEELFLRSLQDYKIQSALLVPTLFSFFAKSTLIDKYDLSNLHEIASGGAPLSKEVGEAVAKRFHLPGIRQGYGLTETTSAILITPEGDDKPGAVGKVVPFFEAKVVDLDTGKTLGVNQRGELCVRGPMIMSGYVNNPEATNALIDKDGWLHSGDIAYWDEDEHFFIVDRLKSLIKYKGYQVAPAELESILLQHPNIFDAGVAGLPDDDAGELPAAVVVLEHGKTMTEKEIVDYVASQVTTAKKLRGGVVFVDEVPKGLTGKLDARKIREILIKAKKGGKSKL

O=C(Nc1cccc(C(=O)O)c1)Nc1ccc2c(c1)OCO2
AC50 [1]: 3.34 µM (active) | IC50 [2]: > 39.8 µM (not active) | AC50 [3]: 333 nM (active) | AC50 [4]: 5.37 µM (active) | IC50 [5]: 1.77 µM (active) | AC50 [6]: 1.53 µM (active) | AC50 [7]: 1.47 µM (active) | AC50 [8]: 1.97 µM (active) | AC50 [9]: 2.74 µM (active) | AC50 [10]: 605 nM (active) | IC50 [11]: > 80 µM (inactive) | AC50 [12]: 1.81 µM (active) | AC50 [13]: 145 nM (active) | AC50 [14]: 5.13 µM (active)

NC(=O)c1cccc2[nH]c(-c3ccncc3)nc12
Ki [15]: 1 µM (active)

CCOC(=O)c1ccc2ncc(C(=O)OCC)c(Nc3ccc(N4CCOCC4)cc3)c2c1
IC50 [16]: > 64.6 µM (inactive) | IC50 [17]: 8.67 µM (active) | AC50 [18]: 1.16 µM (active) | AC50 [19]: 3.56 µM (active) | EC50 [20]: 21.4 µM (active) | EC50 [21]: 18.5 µM (active) | AC50 [22]: 257 nM (active) | AC50 [23]: 227 nM (active)

C[C@@H]1CN([C@H](C)CO)C(=O)c2cccc(NC(=O)Nc3ccccc3)c2O[C@H]1CN(C)S(=O)(=O)c1ccc(Cl)cc1
AC50 [24]: 22.4 µM (active) | AC50 [25]: 41.6 µM (active)

Cc1ccccc1/C=C\c1nc2ccccc2c(=O)n1Cc1ccccc1
IC50 [26]: > 80 µM (inactive) | IC50 [27]: > 80 µM (inactive)
